From ChEMBL document CHEMBL1201862, “PubChem BioAssay data set” (2004)
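These data come from cells grown in 96-well plates and exposed to compound for 48 hours at five concentrations. GI50 marks 50% less growth.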 Active and inactive are the calls of the source. Rule as the data show it: active = GI50 up to about 1.1 µM and inactive = higher.

What was measured:
Test in all cases: NCI anticancer screen, dose series, 48 h
SNB-75 = tested on: SNB-75
U-251 = tested on: U-251
UO-31 = tested on: UO-31
M14 = tested on: M14
OVCAR-4 = tested on: OVCAR-4
A549 = tested on: A549
NCI-H226 = tested on: NCI-H226
HCC 2998 = tested on: HCC 2998
CAKI-1 = tested on: CAKI-1
Hs-578T = tested on: Hs-578T
RPMI-8226 = tested on: RPMI-8226
IGROV-1 = tested on: IGROV-1
NCI/ADR-RES = tested on: NCI/ADR-RES
RXF 393 = tested on: RXF 393
786-0 = tested on: 786-0
SK-MEL-5 = tested on: SK-MEL-5
HCT-116 = tested on: HCT-116
T47D = tested on: T47D
TK-10 = tested on: TK-10
HOP-92 = tested on: HOP-92

## CC(=O)Oc1ccc2c(c1)O/C(=C\c1ccc(O)cc1)C2=O
SNB-75
  GI50: > 100 µM (inactive)
U-251
  GI50: > 100 µM (inactive)
UO-31
  GI50: > 100 µM (inactive)
M14
  GI50: > 100 µM (inactive)
OVCAR-4
  GI50: > 100 µM (inactive)
A549
  GI50: > 100 µM (inactive)
NCI-H226
  GI50: > 100 µM (inactive)
HCC 2998
  GI50: > 100 µM (inactive)
CAKI-1
  GI50: > 100 µM (inactive)
Hs-578T
  GI50: 27.5 µM (inactive)
RPMI-8226
  GI50: > 100 µM (inactive)
IGROV-1
  GI50: > 100 µM (inactive)
NCI/ADR-RES
  GI50: > 100 µM (inactive)
RXF 393
  GI50: > 100 µM (inactive)
786-0
  GI50: > 100 µM (inactive)
SK-MEL-5
  GI50: > 100 µM (inactive)
HCT-116
  GI50: > 100 µM (inactive)
T47D
  GI50: > 100 µM (inactive)
TK-10
  GI50: > 100 µM (inactive)

## OCCOCCO[P+]1(OCCOCCO)n2c3ccc2C(c2ccccc2)=C2C=CC(=N2)C(c2ccccc2)=c2ccc(n21)=C(c1ccccc1)C1=NC(=C3c2ccccc2)C=C1
SNB-75
  GI50: 0.0491 µM (active)
UO-31
  GI50: 1.86 µM (inactive)
M14
  GI50: 0.272 µM (active)
OVCAR-4
  GI50: 0.209 µM (active)
A549
  GI50: 0.113 µM (active)
NCI-H226
  GI50: 0.162 µM (active)
HCC 2998
  GI50: 0.0378 µM (active)
CAKI-1
  GI50: 1.68 µM (inactive)
Hs-578T
  GI50: 0.127 µM (active)
RPMI-8226
  GI50: 0.0142 µM (active)
IGROV-1
  GI50: 0.0261 µM (active)
NCI/ADR-RES
  GI50: 7.14 µM (inactive)
RXF 393
  GI50: 0.548 µM (active)
786-0
  GI50: 0.179 µM (active)
SK-MEL-5
  GI50: 0.0506 µM (active)
HCT-116
  GI50: 0.0836 µM (active)
T47D
  GI50: 0.04 µM (active)
TK-10
  GI50: 0.426 µM (active)

## CC1=C2c3ccccc3N(S(=O)(=O)c3ccccc3)[C@H]2[C@H](C(=O)N2C3CC4CC[C@@]3(CS2(=O)=O)C4(C)C)CC1 (stereo partly specified)
SNB-75
  GI50: 0.635 µM (active)
U-251
  GI50: 6.59 µM (inactive)
UO-31
  GI50: 9.06 µM (inactive)
M14
  GI50: 64.4 µM (inactive)
OVCAR-4
  GI50: 64 µM (inactive)
A549
  GI50: 35.3 µM (inactive)
NCI-H226
  GI50: 37.4 µM (inactive)
CAKI-1
  GI50: 11.2 µM (inactive)
Hs-578T
  GI50: 0.627 µM (active)
RPMI-8226
  GI50: 0.334 µM (active)
IGROV-1
  GI50: 59.4 µM (inactive)
HOP-92
  GI50: 22.5 µM (inactive)
NCI/ADR-RES
  GI50: 35.9 µM (inactive)
RXF 393
  GI50: 0.222 µM (active)
786-0
  GI50: 0.41 µM (active)
SK-MEL-5
  GI50: 22.8 µM (inactive)
HCT-116
  GI50: 11.7 µM (inactive)
T47D
  GI50: 10.6 µM (inactive)
TK-10
  GI50: 43.9 µM (inactive)

## CC(C)(C)CN1[C@@H]2CCCC[C@H]2N(CC(C)(C)C)P1(=O)Cc1ccccc1
SNB-75
  GI50: 11.4 µM (inactive)
U-251
  GI50: 13.4 µM (inactive)
UO-31
  GI50: 13.3 µM (inactive)
M14
  GI50: 13.5 µM (inactive)
OVCAR-4
  GI50: 10.4 µM (inactive)
A549
  GI50: 11.6 µM (inactive)
NCI-H226
  GI50: 12.9 µM (inactive)
HCC 2998
  GI50: 9.14 µM (inactive)
CAKI-1
  GI50: 12.7 µM (inactive)
Hs-578T
  GI50: 15.7 µM (inactive)
IGROV-1
  GI50: 11 µM (inactive)
NCI/ADR-RES
  GI50: 12.1 µM (inactive)
RXF 393
  GI50: 10.8 µM (inactive)
786-0
  GI50: 15.6 µM (inactive)
SK-MEL-5
  GI50: 12.2 µM (inactive)
HCT-116
  GI50: 10.2 µM (inactive)
T47D
  GI50: 10.1 µM (inactive)
TK-10
  GI50: 12.5 µM (inactive)

## COC(=O)C1CC2(CCC1=O)Cc1ccccc1C2=O (stereo unspecified)
SNB-75
  GI50: > 100 µM (inactive)
U-251
  GI50: > 100 µM (inactive)
UO-31
  GI50: > 100 µM (inactive)
M14
  GI50: > 100 µM (inactive)
OVCAR-4
  GI50: > 100 µM (inactive)
A549
  GI50: > 100 µM (inactive)
NCI-H226
  GI50: 47.4 µM (inactive)
HCC 2998
  GI50: > 100 µM (inactive)
CAKI-1
  GI50: > 100 µM (inactive)
Hs-578T
  GI50: > 100 µM (inactive)
RPMI-8226
  GI50: 65.5 µM (inactive)
IGROV-1
  GI50: > 100 µM (inactive)
NCI/ADR-RES
  GI50: 99.5 µM (inactive)
RXF 393
  GI50: 14.5 µM (inactive)
786-0
  GI50: > 100 µM (inactive)
SK-MEL-5
  GI50: > 100 µM (inactive)
HCT-116
  GI50: 87.7 µM (inactive)
T47D
  GI50: > 100 µM (inactive)
TK-10
  GI50: > 100 µM (inactive)

## COC(C/C(=C/CO[Si](C(C)C)(C(C)C)C(C)C)C(=O)N(COCC[Si](C)(C)C)c1ccccc1I)OC
SNB-75
  GI50: > 100 µM (inactive)
U-251
  GI50: 22.8 µM (inactive)
UO-31
  GI50: 55.3 µM (inactive)
M14
  GI50: 26.6 µM (inactive)
OVCAR-4
  GI50: 42.2 µM (inactive)
A549
  GI50: 37.2 µM (inactive)
NCI-H226
  GI50: 36 µM (inactive)
HCC 2998
  GI50: 43.9 µM (inactive)
CAKI-1
  GI50: > 100 µM (inactive)
Hs-578T
  GI50: 48.2 µM (inactive)
RPMI-8226
  GI50: > 100 µM (inactive)
IGROV-1
  GI50: 0.0247 µM (active)
HOP-92
  GI50: 42 µM (inactive)
NCI/ADR-RES
  GI50: > 100 µM (inactive)
786-0
  GI50: 31.4 µM (inactive)
SK-MEL-5
  GI50: 20.1 µM (inactive)
HCT-116
  GI50: 13.2 µM (inactive)
T47D
  GI50: 32.6 µM (inactive)
TK-10
  GI50: 63.1 µM (inactive)

## COc1cc2c(c(OC)c1OC)-c1ccc(=O)c(O)cc1[C@@H](NC(C)=O)CC2 [COLCHICEINE]
SNB-75
  GI50: 40.6 µM (inactive)
U-251
  GI50: 15.7 µM (inactive)
UO-31
  GI50: 17.6 µM (inactive)
M14
  GI50: 24.7 µM (inactive)
OVCAR-4
  GI50: 12.6 µM (inactive)
A549
  GI50: 27.7 µM (inactive)
NCI-H226
  GI50: 19.7 µM (inactive)
HCC 2998
  GI50: 15.3 µM (inactive)
CAKI-1
  GI50: 12.6 µM (inactive)
Hs-578T
  GI50: 21.3 µM (inactive)
RPMI-8226
  GI50: 11.1 µM (inactive)
IGROV-1
  GI50: 26.3 µM (inactive)
HOP-92
  GI50: 20.2 µM (inactive)
NCI/ADR-RES
  GI50: 6.98 µM (inactive)
786-0
  GI50: 23.3 µM (inactive)
SK-MEL-5
  GI50: 7.66 µM (inactive)
HCT-116
  GI50: 27.7 µM (inactive)
T47D
  GI50: 5.51 µM (inactive)
TK-10
  GI50: 37.9 µM (inactive)
